Laboratory results published in paper PMC6838110 (Nature Communications, 2019).

Experiments:
[1] = system: BT474 breast cancer xenografts; experiment: Xenograft efficacy study with liposomal doxorubicin; assay type: in vivo, mice; details: AZD7648 37.5 mg kg−1 bid × 28 days, single agent
Method: Immunocompromised SCID (C.B-17/IcrHan®Hsd-Prkdc^scid) or Hsd:Athymic Nude-Foxn1^nu female mice (Envigo) were used for tumour implantation. […] When dosed twice daily, the time between the morning and evening doses was 8 h. Targeted irradiation of 2 Gy was delivered over 2 min daily over the first 5 days of treatment. Liposomal doxorubicin (Doxoves) was diluted in physiological saline and intravenously dosed at 2.5 or 5 mg kg^−1 once per week. Olaparib was formulated in 10% DMSO/30% Kleptose and orally dosed at 100 mg kg^−1 once daily. […] Statistical significance was evaluated using a one-tailed t-test. All in vivo studies complied with all relevant ethical regulations for animal testing and research, followed AstraZeneca’s global bioethics policy and received ethical approval from the AstraZeneca ethical committee. HBCx-17 PDX study was carried out at XenTech, France in accordance with French regulatory legislation concerning the protection of laboratory animals. CTG-703, CTG-0828 and CTG-0149 PDX studies were carried out at Champions Oncology, Inc., USA in accordance to the guidelines of the Institutional Animal Care and Use Committee (IACUC) of Champions Oncology and the USA regulatory legislation. […]
Tumours were measured (length x width) by bilateral Vernier calliper measurements and tumour volume calculated using Mousetrap software. […]

[2] = system: FaDu ATM KO xenograft model; experiment: Pharmacodynamic biomarkers by western blot; assay type: in vivo, mice; details: 30 min after 75 mg kg−1 dose of AZD7648
Description: (1 picture or pasted object on this page, not shown here)
treatment groups when mean tumour volume reached ~0.2 cm 3.

A549 xenografts = experiment: Pharmacodynamic biomarkers by immunohistochemistry after IR; assay type: in vivo, mice; details: single dose AZD7648 100 mg kg−1, 1 h before IR 6 Gy
A549 cells = experiment: Colony formation assay with ionizing radiation; assay type: cell-based, human
Method: (§1) page 32: […] Plates were then washed 2x with PBS, incubated with 20 µL of antibody solution containing […] incubated at RT for 2 hours. Plates were washed 3x with PBS before imaging on the CV7000 high-content imaging platform (Yokogawa). Following image acquisition, images were exported to the ColumbusTM image data storage and analysis system (Perkin Elmer). Optimized image algorithms were used to evaluate phenotypic response s using nuclear staining with Hoechst (cell cycle, micronuclei, nuclear fragmentation ), as well as to quantify the response of DNA damage response markers (foci numbers and total signal […] SDS-PAGE and Western blotting of samples Protein lysates were generated by scraping cells in radioimmunoprecipitation assay […] and protease and phosphatase inhibitor tablets (Roche) following compound treatments at indicated time points. Protein concentration was determined using the BCA protein assay kit (ThermoFisher). Proteins were separated by SDS -PAGE on NuPAGE® 4-12% […] membranes using the iBlot ® dry blotting system (ThermoFisher). Membranes were […] and incubated with primary antibody overnight at 4°C. Membranes were then washed with TBS-T and incubated with HRP-conjugated anti-rabbit or anti-mouse antibodies for 1 hour at RT. Proteins were detected by incubating membranes with SuperSignalTM Dura extended-duration substrate (ThermoFisher) and visualiz ed using the G:BOX ChemiGenius imaging system (Syngene). Band intensities were quantified using Syngene Genetools software. For analysis o f in vivo samples, a two-sided t-test was performed on logged data assuming unequal variance. A list of all antibodies used in this study can be found in Supplementary Table 5. Colony formation assay Cells were plated at low density into six-well plates in 3 mL medium (500 cells for A549, NCI-H1299 and FaDu WT, 4000 cells for FaDu ATM […]) and incubated overnight. Cell plating numbers were adjusted for higher IR doses to compensate for cell kill. […] Cell colonies were washed with […] acetic acid for >10 minutes. Excess stain was removed by washing with water. Surviving colonies (>50 cells) were counted using the GelCountTM colony counter (Oxford Optronix). Mean surviving colonies were calculated from three technical replicates. […] fraction. […] 33

NCI-H1299 cells = experiment: Colony formation assay with ionizing radiation; assay type: cell-based, human; details: for DEF37 Mean / DEF37 n1 / DEF37 n2: NCI-H1299
Method: as §1

Cc1cc2ncnn2cc1Nc1ncc2c(n1)n(C1CCOCC1)c(=O)n2C [AZD7648]
TGI [1]: 20%
reduction of pDNA-PKcs Ser2056, γH2AX and pRPA32 Ser4/Ser8 [2]: ~ 80%
IR-induced increases in pDNA-PKcs Ser2056 and γH2AX (A549 xenografts): abolished
DEF37 Mean (A549 cells; AZD7648 0.025 μM + IR): 1.2
DEF37 n1 (A549 cells; AZD7648 0.025 μM + IR): 1.3
DEF37 n2 (A549 cells; AZD7648 0.025 μM + IR): 1.2
DEF37 Mean (A549 cells; AZD7648 0.1 μM + IR): 1.7
DEF37 n1 (A549 cells; AZD7648 0.1 μM + IR): 1.4
DEF37 n2 (A549 cells; AZD7648 0.1 μM + IR): 1.9
Mean DEF37 (A549 cells; AZD7648 1 μM + IR (Fig. 1e)): 5.1
DEF37 Mean (A549 cells; AZD7648 1.21 μM + IR): 5.1
DEF37 n1 (A549 cells; AZD7648 1.21 μM + IR): 3.2
DEF37 n2 (A549 cells; AZD7648 1.21 μM + IR): 7.0
Mean DEF37 (NCI-H1299 cells; H1299, AZD7648 1 μM + IR (Fig. 1e)): 7.4
DEF37 Mean (NCI-H1299 cells; AZD7648 0.025 μM + IR): 1.3
DEF37 n1 (NCI-H1299 cells; AZD7648 0.025 μM + IR): 1.2
DEF37 n2 (NCI-H1299 cells; AZD7648 0.025 μM + IR): 1.3
DEF37 Mean (NCI-H1299 cells; AZD7648 0.1 μM + IR): 2.5
DEF37 n1 (NCI-H1299 cells; AZD7648 0.1 μM + IR): 2.9
DEF37 Mean (NCI-H1299 cells; AZD7648 1.21 μM + IR): 7.4
DEF37 n1 (NCI-H1299 cells; AZD7648 1.21 μM + IR): 7.9
DEF37 n2 (NCI-H1299 cells; AZD7648 1.21 μM + IR): 7.0
